Source: article PMC9666555, “Genuine selective caspase-2 inhibition with new irreversible small peptidomimetics” (Cell Death & Disease, 2022)
Non-standard residues stand in square brackets, D forms with d. Residues, ends and D or L forms follow the SMILES beside them. ξ: configuration not given here. *: point of attachment. ξTHIQ1CO(6-Me) = Cc1ccc2c(c1)CCNC2C(=O)O; X1 = O=C(O)CC(N*)C(=O)COc1c(F)cccc1F; Quinaldoyl = O=C(c1ccc2ccccc2n1)*

Key:
HeLa cells = assay: Vincristine-induced HeLa cell death (propidium iodide, flow cytometry); type: cell-based, human; conditions: indicated doses, 1 h pretreatment, 20 nM vincristine 44 h
Procedure: HeLa cells (obtained from ATCC) were cultured in Dulbecco’s Modified Eagle Medium (DMEM, High Glucose, GlutaMAX™, Pyruvate) supplemented with antibiotics and 10% fetal calf serum (FCS) (Gibco, Life Technologies) and maintained in T75 Flasks at 1 × 10^6 cells per flask. Twenty-four hours before treatments, HeLa cells were transferred to 6-well plates (8 × 10^4 cells/well). The lymphoblastoid cell line Molt4cl8 was a gift from Dr. Bernard Krust (Inserm, University Paris 5) and was cultured in RPMI 1640 Glutamax medium supplemented with Hepes, antibiotics, and 10% FCS. HEK293 cells were obtained from ATCC (CRL-1573) and cultured in DMEM with Glutamax and 25 mM glucose (Life Technologies) supplemented with 10% FCS and antibiotics. For cell death induction, the following agents were added to cell cultures: Vincristine (Sigma) and Panobistat (LBH589; Selleck). Cell death was analyzed using fluorescence microscopy (Axio-observer Z1, Zeiss; equipped with CCD camera CoolsnapHQ2, Ropert Scientific) and cytofluorometry (MACSQuant® VYB; Miltenyi Biotec, Bergisch Gladbach, Germany) after labeling with propidium iodide (1 µg/mL; 10 min; 37 °C; Life Technologies) and Hoechst 33342 (1 µg/mL; 5 min; RT; Sigma).
Fig. 2 q33 and h33 are protective against the cytocidal effect of Vincristine. a Vincristine induces HeLa cell death. Cells were incubated for 44 h at 37 °C with 20 nM Vincristine (VCR), then incubated with propidium iodide at 2 μg/mL for 10 min and analyzed by flow cytometry to quantify plasma membrane permeabilization. Histograms show fluorescence intensity detected by flow cytometry (one representative experiment) in the presence (VCR) or Absence (Co.) of Vincristine. % of propidium iodide-positive cells are indicated for both conditions. b Dose–response of Vincristine-induced cell death. HeLa cells were incubated and treated as in (a) with the indicated doses of Vincristine (VCR) and analyzed by flow cytometry. […] Representative fluorescence microscopy micrographs of cells treated for 44 h with 20 nM vincristine (VCR) or not (Co.) and stained with Hoechst 33342. Vincristine induces progressive nuclear changes with first condensed nuclei (arrows) and then apoptotic bodies (dashed arrow). d Broad-spectrum irreversible caspase inhibitors prevent vincristine-induced cell death. HeLa cells were pretreated for 1 hr with the indicated broad-spectrum irreversible caspases inhibitors (z-VAD(OMe)-fmk at 30 μM, Q-VD-OPh 30 μM, Emricasan 10 μM, or the negative control Q-VE-OPh 30 μM), then treated with vincristine as in panel (a), and analyzed by flow cytometry. Histograms show the mean ± SD of 3 independent experiments (***p value < 0.001). e Effect of the reversible Caspase-2 inhibitors q33 and h33 against vincristine-induced cell death. HeLa cells were pretreated for 1 h with the indicated doses of q33 or h33, then treated with vincristine as in panel a, and analyzed by flow cytometry. Histograms show the mean ± SD of three independent experiments (*p value < 0.1). TEXT PRINTED IN THE PICTURE: (a) VCR: 39,5 % DOUBTS OF THE COPYIST ABOUT THIS PICTURE: Panel a: the picture prints no measure beside "39,5 %" and "4.1%". I assigned 39,5 % to VCR only because it stands by the grey VCR peak. / Panel a: "4.1%" seems to belong to the untreated control (Co.). That is not a substance, so it is left out.
Fig. 5 LJ2 inhibits cell death induced by microtubule destabilization and hydroxamic acid-based deacetylase (HDAC) inhibition. a Effect of the irreversible Caspase-2 inhibitors LJ2 against vincristine-induced cell death. HeLa cells were pretreated for 1 h with the indicated doses of LJ2, Q-VD-OPh, or Q-LETD-OPh, then treated with vincristine (VCR) as in Fig. 2, then incubated with propidium iodide at 2 μg/mL for 10 min and analyzed by flow cytometry. Histogram data are mean ± SD (n = 3, *p value < 0.01). b Effect of Caspases-inhibitors against Panobistat (LBH589)-induced cell death. […]

Cathepsin-L = Cathepsin-L (Homo sapiens, UniProt P07711); assay: Non-caspase enzyme assay, Cathepsin-L; type: biochemical; conditions: concentrations up to 10 µM
Procedure: (§1) Stock solutions were stored at −80 °C. […]
(§2) Non-caspase enzyme assays
(§3) The human pro- kallikrein-1 (pro-hK1) was activated in a buffer containing: Tris-HCl 50 mM, CaCl2 10 mM, NaCl 150 mM, Brij-35 0,05% pH 7,5. Human pro-kallikrein-6 and -8 (pro-hK6 and 8 were activated using Lysyl-endopeptidase (Wako- BioProducts®) at a 1/500 weight ratio, in a buffer containing 50 mM Tris and 0,05% Brij-35 (pH 8). Kinetics using non-caspase enzymes for selectivity studies were done according to the following conditions.
(§4) Enzymes Substrates Buffers
(§5) Cathepsine B (0.2 nM) z-RR-AMC 20 µM Acétate de sodium 0,1 M; EDTA 1mM ; […]
(§6) Cathepsine L (1.2 nM) RLR-AMC 25 µM Acétate de sodium 0,1 M; EDTA 1mM ; […]
(§7) Cathepsine D (0.1 nM) Mca-Gly-Ly s-Pro-Ile-Leu-Phe-Phe- Citrate de Sodium 0,1 M; EDTA 2 mM ; Arg-Leu-Lys(Dnp)-D-Arg-NH2 10 µM Brij-35 0,01%; pH 4 hK1 (4 nM) Boc-VPR-AMC 100µM Tris 50mM; Citrate 1M; Brij-35 0.05%; pH7 hK6 (2 nM ) Boc-QAR -AMC 100 µM Tris 50mM; Citrate 1M; Brij-35 0.05%; pH7 hK8 (1 nM) Boc-VPR-AMC 100µM Tris 50mM; Citrate 1M; Brij-35 0.05%; pH7
(§8) Thrombine (10 mU/mL) Boc-VPR-AMC 100µM Tris 50mM; Citrate 1M; Brij-35 0.05%; pH7 Plasmine (4 nM ) Boc-QAR -AMC 100µM Tris 50mM; Citrate 1M; Brij-35 0.05%; pH7 Trypsine (0.1 nM) Boc-QAR -AMC 100µM Tris 50mM; Citrate 1M; Brij-35 0.05%; pH7

Cathepsin-D = Cathepsin-D (Homo sapiens, UniProt P07339); assay: Non-caspase enzyme assay, Cathepsin-D; type: biochemical; conditions: concentrations up to 10 µM
Procedure: as §1, §2, §3, §4, §5, §6, §7, §8

Kallikrein-1 = biological target: T1, Kallikrein-1 (Homo sapiens, UniProt P06870); assay: Non-caspase enzyme assay, Kallikrein-1; type: biochemical; conditions: concentrations up to 10 µM
T1 construct: purchased R&D Systems 2337-SE-010
Procedure: as §1, §2, §3, §4, §5, §6, §7, §8

[1] = tested on: Swiss mice hippocampal neurons; assay: Aβ oligomer-induced dendritic spine loss in hippocampal primary cultures; type: cell-based, mouse; conditions: 100 nM Aβ1-42 oligomers 6 h
Procedure: For the monoculture model (MBBT4 devices), 20 × 10^3 hippocampal neurons were seeded in each chamber. For the compartmentalized coculture model (neuronal diode in MBBT5 devices), 40 × 10^3 cortical cells and 15 × 10^3 hippocampal cells were seeded in each input chamber and output chamber, respectively. The culture medium was renewed every 5 days. Microfluidic chips were placed in Petri dishes containing 0.1% EDTA (Sigma) and incubated at 37 °C in a 5% CO2 atmosphere. In the neuronal diodes, cortical axons entered the microchannels and reached the hippocampi chamber in around 4–5 days. In both the monoculture and coculture systems, cells were cultured for 3 weeks to allow high dendrites and synapse density and intense electrical firing.
Cells were treated with caspase inhibitors and/or Aβ1–42 at 20 days in vitro. For the hippocampal monocultures, the culture medium was removed and replaced by fresh medium optionally containing 10 nM Aβ1–42 oligomers or monomers, with or without caspase inhibitors. After 6 h, cells were fixed, permeabilized, and subjected to immunolabelling. For cortico-hippocampal compartmentalized cocultures, the medium of the input chamber (cortical) was replaced by fresh medium optionally containing 100 nM Aβ1–42 oligomers or monomers, whereas the medium of the output (hippocampal) chamber was replaced by fresh medium optionally containing, or not, caspases inhibitors. […]
Immunostaining was performed directly in microfluidic chambers as described [38]. […] Images were analyzed using ImageJ software (NIH, Bethesda, MD, USA).
Synaptic disconnection was assessed as described [39] with slight modifications. Briefly, in hippocampal monocultures, synaptic disconnection was assessed through fluorescence microscopy by counting phalloidin clusters affixed to MAP2 and Bassoon. In cortico-hippocampal compartmentalized cocultures, synaptic disconnection was assessed by counting α-Synuclein presynaptic clusters affixed to MAP2-positive hippocampal dendrites. […] The images were similarly processed with ImageJ software before being used for quantification: the brightness/contrast of all control images were optimized manually to eliminate the background and to maximize the signal. The means of the minimum and maximum intensities were then calculated in the control condition and these settings were applied to all images. The brightness/contrast of all images was optimized manually to eliminate the background and maximize the intensity of the signal. α-synuclein/ MAP2 and Phalloidin/MAP2/Bassoon merges were then used for quantification. The number of spines was determined by counting individual clusters along ten dendritic regions (100 µm length each) in three independent experiments for every epitope. Only synapses detected on or near the neurites were included for analysis.

[2] = biological target: human recombinant Caspase-6 (Homo sapiens, UniProt P55212); assay: Additional enzyme kinetics, Caspase-6; conditions: concentrations up to 10 µM
Procedure: (§9) The human active recombinant Caspase-3 (#707-C3) was purchased from R&D Systems (Minneapolis, USA). […] Stock solutions were stored at −80 °C. […] Caspase inhibitors were solubilized in DMSO at 10 mM and stored at −80 °C.
(§10) Initial velocity (V0) was determined from the linear portion of the progress curve. The composition of the activity buffer was: 20 mM HEPES, pH 7.4; 0.1% CHAPS, 5 mM DTT, 2 mM EDTA; 800 mM sodium succinate for Caspase-2 (0.2 nM) with 25 µM of Ac-VDVAD-7-amino-3-methylcoumarin (AMC) and 20 mM HEPES, pH 7.4; 0.1% CHAPS, 5 mM DTT, 2 mM EDTA; supplemented with 1 mg/mL of stabilizing agent bovine serum albumin (BSA) for Caspase-3 (0.1 nM) with 10 μM of Ac-DEVD-AMC. Compounds (0.001–100 µM) were tested in duplicate for each inhibitor concentration to detect their inhibitory potential. Enzymes and compounds were incubated for 30 min before initiating enzymatic reaction by adding substrate. Initial rates determined in control experiments (V0) were considered as 100% of the caspase activity; initial rates that were below 100% in the presence of tested compound (Vi) were considered as inhibition. The inhibitory activity of compounds was expressed as IC50 (Inhibitor concentration giving 50% inhibition). The values of IC50 were calculated by fitting the experimental data using Mars data Analysis 2.0 and KaleidaGraph software.1 %Inhibition=1001−Vi/V0=100I0/IC50+I0

[3] = biological target: human recombinant Caspase-1 (Homo sapiens, UniProt P29466); assay: Additional enzyme kinetics, Caspase-1; conditions: concentrations up to 10 µM
Sequence of human recombinant Caspase-1 (P29466 120-297 limits assumed): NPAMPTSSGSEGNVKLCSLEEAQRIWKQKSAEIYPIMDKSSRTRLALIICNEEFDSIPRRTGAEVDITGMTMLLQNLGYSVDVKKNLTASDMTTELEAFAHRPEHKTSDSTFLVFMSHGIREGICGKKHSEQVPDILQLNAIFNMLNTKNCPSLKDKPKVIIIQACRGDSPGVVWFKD
Sequence of human recombinant Caspase-1 (P29466 317-404 limits assumed): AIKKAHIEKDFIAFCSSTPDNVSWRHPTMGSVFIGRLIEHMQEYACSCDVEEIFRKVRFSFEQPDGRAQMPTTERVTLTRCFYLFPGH
Procedure: as §9, §10

Sequence of Cathepsin-D (P07339 65-412): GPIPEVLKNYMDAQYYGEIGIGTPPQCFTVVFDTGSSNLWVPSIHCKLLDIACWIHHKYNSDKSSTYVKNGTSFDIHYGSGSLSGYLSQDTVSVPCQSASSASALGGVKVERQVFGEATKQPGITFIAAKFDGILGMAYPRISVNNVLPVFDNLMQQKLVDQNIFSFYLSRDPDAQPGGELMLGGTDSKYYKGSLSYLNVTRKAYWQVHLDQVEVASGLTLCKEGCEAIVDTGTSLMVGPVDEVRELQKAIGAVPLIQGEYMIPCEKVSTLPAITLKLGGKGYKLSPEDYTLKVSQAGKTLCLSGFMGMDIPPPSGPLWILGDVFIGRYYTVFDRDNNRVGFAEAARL
Sequence of human recombinant Caspase-6 (P55212 24-179 limits assumed): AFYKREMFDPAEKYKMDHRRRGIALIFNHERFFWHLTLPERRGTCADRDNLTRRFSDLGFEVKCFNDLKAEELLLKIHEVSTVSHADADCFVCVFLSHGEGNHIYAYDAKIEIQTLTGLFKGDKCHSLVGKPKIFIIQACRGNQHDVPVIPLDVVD
Sequence of human recombinant Caspase-6 (P55212 194-293 limits assumed): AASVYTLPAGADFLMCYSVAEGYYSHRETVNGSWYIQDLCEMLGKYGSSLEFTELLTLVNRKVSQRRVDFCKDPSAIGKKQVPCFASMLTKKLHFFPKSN
Sequence of Cathepsin-L (P07711 114-333): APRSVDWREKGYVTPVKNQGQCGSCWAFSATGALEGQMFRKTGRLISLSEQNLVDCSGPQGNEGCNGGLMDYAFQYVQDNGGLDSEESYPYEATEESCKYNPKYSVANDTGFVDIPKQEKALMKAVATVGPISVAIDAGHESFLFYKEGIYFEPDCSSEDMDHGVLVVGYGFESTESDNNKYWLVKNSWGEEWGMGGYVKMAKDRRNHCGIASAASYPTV
T1 sequence (P06870 25-262): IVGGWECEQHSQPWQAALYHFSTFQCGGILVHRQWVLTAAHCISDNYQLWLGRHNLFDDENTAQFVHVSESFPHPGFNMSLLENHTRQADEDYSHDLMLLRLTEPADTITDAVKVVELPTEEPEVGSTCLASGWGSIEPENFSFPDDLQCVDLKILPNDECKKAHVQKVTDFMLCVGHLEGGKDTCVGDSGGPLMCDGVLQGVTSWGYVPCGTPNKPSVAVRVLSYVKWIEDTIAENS

Structure (SMILES)	effect against vincristine-induced cell death (HeLa cells)	effect on Cathepsin-L (Cathepsin-L)	effect on Cathepsin-D (Cathepsin-D)	effect on Kallikrein-1 (Kallikrein-1)	prevention of dendritic spine loss induced by oligomeric Aβ ([1]; pretreatment at 0.1 µM) [%]	prevention of dendritic spine loss induced by oligomeric Aβ ([1]; pretreatment at 1 µM) [%]	prevention of dendritic spine loss induced by oligomeric Aβ ([1]; pretreatment at 10 µM) [%]	effect on Caspase-6 [2]	effect on Caspase-1 [3]
Cc1ccc2c(c1)CCN(C(=O)[C@@H](NC(=O)[C@H](CC(=O)O)NC(=O)[C@@H](NC(=O)c1ccc3ccccc3n1)C(C)C)C(C)C)C2C(=O)NC(CC(=O)O)C(=O)COc1c(F)cccc1F (stereo partly drawn) [LJ2, Quinolin-2-carbonyl-VDV-(methyl-isoquinolyl)-D-CH2-O(2,6F2)Ph] (Quinaldoyl-VDV[ξTHIQ1CO(6-Me)]-X1)	significantly prevented Vincristin-induced cell death in a dose-dependent manner	–	–	–	–	–	–	–	–
CC(C)[C@H](NC(=O)c1ccc2ccccc2n1)C(=O)N[C@@H](CC(=O)O)C(=O)N[C@H](C(=O)N1CC[C@H](CC(C)(C)C)[C@@H]1C(=O)NC(CC(=O)O)C(=O)COc1c(F)cccc1F)C(C)C (stereo partly drawn) [LJ3a]	–	very limited or no effect	very limited or no effect	very limited or no effect	59.63	89.29	97.5	very limited or no effect	very limited or no effect
